Earlier results, collected in patent publication US9789059B2, “Oral disintegrating tablet” (Boehringer Ingelheim International GmbH, priority 2014, dated 2017).

Settings: physiological pH range of the gastro-intestinal tract between pH 1 to 7; free acid form

CCCc1nc2c(C)cc(-c3nc4ccccc4n3C)cc2n1Cc1ccc(-c2ccccc2C(=O)O)cc1 [Telmisartan, 4′-[2-n-propyl-4-methyl-6-(1-methylbenzimidazol-2-yl)-benzimidazol-1-ylmethyl]-biphenyl-2-carboxylic acid]
solubility in aqueous systems: very poor solubility
